# Like-named read-outs stand apart in the source and are kept apart here.
# Legend:
# MRSA USA300 = assay: MIC against MRSA USA300 with and without 4% human serum albumin; assay type: cell-based, Staphylococcus aureus; conditions: Staphylococcus aureus, read-out: MIC against MRSA USA300
# How it was run: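 MIC measured in tryptic soy broth spiked with 4% HSA and without it, using CLSI broth microdilution on MRSA USA300. Value reported is the lowest concentration preventing bacterial growth.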
# [1] = tested on: vancomycin resistant enterococci (VRE) E. faecium; assay: Broth microdilution MIC/MBC, VRE E. faecium; assay type: cell-based; conditions: for MIC: read-out: MIC
# Pseudomonas aeruginosa = assay: MIC with/without PMBN, Pseudomonas aeruginosa; assay type: cell-based
# How it was run: (§1)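 Read-out is the MIC, determined with sub-inhibitory colistin or polymixin B nonapeptide co-applied to permeabilize the outer membrane of Gram-negative bacteria.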
# P. aeruginosa = assay: Broth microdilution MIC, P. aeruginosa; assay type: cell-based; conditions: Pseudomonas aeruginosa
# K. pneumoniae = assay: Broth microdilution MIC, K. pneumoniae; assay type: cell-based
# Klebsiella pneumoniae = assay: MIC with/without PMBN, Klebsiella pneumoniae; assay type: cell-based
# How it was run: as §1
# [2] = tested on: methicillin-resistant Staphylococcus aureus (MRSA); assay: Broth microdilution MIC/MBC, MRSA; assay type: cell-based
# [3] = tested on: vancomycin resistant enterococci (VRE) E. faecalis; assay: Broth microdilution MIC/MBC, VRE E. faecalis; assay type: cell-based; conditions: for MIC: read-out: MIC
# Acinetobacter baumannii = assay: MIC with/without sub-MIC colistin, Acinetobacter baumannii; assay type: cell-based
# How it was run: as §1
# Bacillus Strains = assay: Broth microdilution MIC50/MIC90 and MIC range, Bacillus strains panel; assay type: cell-based, Bacillus spp.; conditions: 10 Bacillus strains
# Excerpt: The broth microdilution technique was used, followed by subculturing on agar plates that were rhodanine—free. […] The MICs reported represent the lowest concentration of each compound necessary to inhibit bacterial growth and the MBCs represent the lowest concentration required to reduce the initial bacterial inoculum by ≥ 99.9%.
# Candida albicans = assay: MIC against Candida albicans; assay type: cell-based; conditions: table prints none, read-out: MIC
# Clostridium difficile = assay: MIC against Clostridium difficile, anaerobic broth dilution; assay type: cell-based; conditions: Clostridioides difficile
# How it was run: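 Clinical C. difficile isolates grown anaerobically 48 h at 37 °C, suspended to 0.5 McFarland and diluted 1:300 in pre-reduced supplemented Brain Heart Infusion broth. Compounds serially diluted; plates incubated anaerobically at 37 °C for 48 h. MIC = lowest concentration with no visible growth.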
# [4] = E. faecium HM 968 Strain ERV102
# [5] = E. faecium NR31914 Strain E0120
# [6] = E. faecium Patient #1–1 NR-31903
# [7] = E. faecalis NR31972 Strain SF 28073
structure (smiles),measurement,setting,value
O=C(O)[C@H](Cc1ccccc1)N1C(=O)/C(=C/c2cccc(-c3ccccc3)c2)SC1=S [Rh 5],MIC,"MRSA USA300; 24 h, Media TSB + 4% HSA",> 64 µM
same,MIC,MRSA USA300; Media TSB,16 µM
same,MBC,[1]; E. faecium E417 HM-965,> 64 µM
same,MIC,[1]; E. faecium E417 HM-965,8 µM
same,MBC,[1]; E. faecium E1071 NR-28978,> 64 µM
same,MIC,[1]; E. faecium E1071 NR-28978,16 µM
same,MBC,[1]; [4],64 µM
same,MIC,[1]; [4],16 µM
same,MBC,[1]; [5],> 64 µM
same,MIC,[1]; [5],16 µM
same,MBC,[1]; [6],64 µM
same,MIC,[1]; [6],8 µM
same,MIC,"Pseudomonas aeruginosa; Pseudomonas aeruginosa ATCC 9721, PMBN (+) 4 μg/mL, read-out: MIC",>64 µM
same,MIC,"Pseudomonas aeruginosa; Pseudomonas aeruginosa, ATCC9721",> 128 µM
same,MIC,P. aeruginosa; ATCC9721,> 128 µM
same,MIC,P. aeruginosa; ATCC15442,> 128 µM
same,MIC,K. pneumoniae; K. pneumoniae NR-15417,>128 µM
same,MIC,K. pneumoniae; Klebsiella pneumoniae,> 128 µM
same,MIC,"Klebsiella pneumoniae; Klebsiella pneumoniae ATCC BAA 1706, PMBN (+) 4 μg/mL",>64 µM
same,MIC,"Klebsiella pneumoniae; Klebsiella pneumoniae ATCC BAA 2146, PMBN (+) 4 μg/mL",>64 µM
same,MIC,"Klebsiella pneumoniae; Klebsiella pneumoniae, BAA1706",> 128 µM
same,MIC,"Klebsiella pneumoniae; Klebsiella pneumoniae, BAA2146",> 128 µM
same,MIC50,[2]; 11 MRSA strains,8 µM
same,MIC90,[2]; 11 MRSA strains,16 µM
same,MBC,[2]; MRSA NRS 1,16 µM
same,MIC,[2]; MRSA NRS 1,8 µM
same,MBC,[2]; MRSA NRS 19,16 µM
same,MIC,[2]; MRSA NRS 19,8 µM
same,MBC,[2]; MRSA NRS 37,16 µM
same,MIC,[2]; MRSA NRS 37,16 µM
same,MBC,[2]; MRSA NRS 107,16 µM
same,MIC,[2]; MRSA NRS 107,16 µM
same,MBC,[2]; MRSA NRS 119,8 µM
same,MIC,[2]; MRSA NRS 119,8 µM
same,MBC,[2]; MRSA NRS 382,8 µM
same,MIC,[2]; MRSA NRS 382,8 µM
same,MBC,[2]; MRSA NRS 383,16 µM
same,MIC,[2]; MRSA NRS 383,16 µM
same,MBC,[2]; MRSA NRS 384,64 µM
same,MIC,[2]; MRSA NRS 384,8 µM
same,MBC,[2]; MRSA NRS 385,16 µM
same,MIC,[2]; MRSA NRS 385,8 µM
same,MBC,[2]; MRSA NRS 386,64 µM
same,MIC,[2]; MRSA NRS 386,8 µM
same,MBC,[2]; MRSA NRS 387,8 µM
same,MIC,[2]; MRSA NRS 387,8 µM
same,MBC,[3]; E. faecalis ERV103 HM-934,16 µM
same,MIC,[3]; E. faecalis ERV103 HM-934,16 µM
same,MBC,[3]; [7],16 µM
same,MIC,[3]; [7],16 µM
same,MBC,[3]; E. faecalis R712 HM-335,16 µM
same,MIC,[3]; E. faecalis R712 HM-335,8 µM
same,MBC,[3]; E. faecalis S613 HM-334,16 µM
same,MIC,[3]; E. faecalis S613 HM-334,16 µM
same,MBC,[3]; E. faecalis TX0104 HM-201,16 µM
same,MIC,[3]; E. faecalis TX0104 HM-201,16 µM
same,MIC,"Acinetobacter baumannii; Acinetobacter baumannii ATCC BAA747, colistin (+) […], read-out: MIC",>64 µM
same,MIC,"Acinetobacter baumannii; Acinetobacter baumannii ATCC BAA19606, colistin (+) […], read-out: MIC",>64 µM
same,MIC,"Acinetobacter baumannii; Acinetobacter baumannii, ATCCBAA747",> 128 µM
same,MIC,"Acinetobacter baumannii; Acinetobacter baumannii, ATCCBAA19606",> 128 µM
same,MIC50,Bacillus Strains,4 µM
same,MIC90,Bacillus Strains,8 µM
same,MIC,"Candida albicans; ATCC10231, C. albicans ATCC 10231, unit from abstract",> 64 µM
same,MIC,"Candida albicans; C. albicans NR 29434, unit from abstract",> 64 µM
same,MIC,"Candida albicans; C. albicans NR 29435, unit from abstract",> 64 µM
same,MIC,"Candida albicans; C. albicans NR29437, unit from abstract",> 64 µM
same,MIC,"Candida albicans; C. albicans NR29438, unit from abstract",> 64 µM
same,MIC,"Candida albicans; C. albicans NR 29446, unit from abstract",> 64 µM
same,MIC,"Candida albicans; C. albicans NR 29448, unit from abstract",> 64 µM
same,MIC,"Candida albicans; C. albicans NR 29449, unit from abstract",> 64 µM
same,MIC,"Candida albicans; C. albicans NR 29453, unit from abstract",> 64 µM
same,MIC,"Candida albicans; C. albicans NR 294436, unit from abstract",> 64 µM
same,MIC,Clostridium difficile; C. difficile HM-88,4 µM
same,MIC,Clostridium difficile; C. difficile HM-745,4 µM
same,MIC,Clostridium difficile; C. difficile HM-746,2 µM
same,MIC,Clostridium difficile; C. difficile Isolate-1 NR-13427,4 µM
same,MIC,Clostridium difficile; C. difficile Toxigenic Strain P8 NR-32888,4 µM
